Assay results from patent US8859021B2, “Skin appearance through gene manipulation” (Sytheon, priority 2007, dated 2014).

Key:
EpiDerm tissues = conditions: retinol 10 μg/ml, Sytenol A 5 μg/ml, 2 days, vs 0.1% DMSO control
skin = conditions: in vivo

## C=C[C@@](C)(/C=C/c1ccc(O)cc1)CCC=C(C)C [Sytenol A, bakuchiol]
EpiDerm tissues
  Fold Change, JUP Catenin gamma (Junction plakoglobin) (Table 8): +3.83 fold
  Fold Change, JUP Catenin gamma (Table 9): +3.83 fold
  Fold Change, KIF1C Kinesin-like protein KIF1C: +2.03 fold
  Fold Change, KIF2A Kinesin-like protein KIF2A: No effect
  Fold Change, KIF4A Chromosome-associated kinesin KIF4A: +2.15 fold
  Fold Change, KIF13A Kinsein-like protein KIF13A: No effect
  Fold Change, KIF13B Kinsein-like protein KIF13B: +3.53 fold
  Fold Change, KIF17 Kinesin-like protein KIF17: +2.44 fold
  Fold Change, KIF26A Kinesin family member 26A: No effect
  Fold Change, KIFC2 Kinesin-like protein KIFC2: No effect
  Fold Change, KRT2 Keratin-2; Cytokeratin-2e (CK 2e): −3.53 fold
  Fold Change, KRT5 Keratin-5, Cytokeratin-5 (CK-5): +2.81 fold
  Fold Change, KRT7 Keratin-7; Cytokeratin-7 (CK-7): +13.75 fold
  Fold Change, KRT13 Keratin-13; Cytokeratin-13 (CK-13): +16.34 fold
  Fold Change, KRT15 Keratin-15; Cytokeratin-15 (CK-15): +11.29 fold
  Fold Change, KRT19 Keratin-19; Cytokeratin-19 (CK-19): +20.67 fold
  Fold Change, LAMA3 Laminin subunit alpha-3 precursor (Epiligrin 170 kDa subunit): +11.03 fold
  Fold Change, LAMC2 Laminin subunit gamma-2 precursor (Laminin B2t chain): +7.84 fold
  Fold Change, LRAT Lecithin retinol acyltransferase: +82.23 fold
  Fold Change, LRRC49 Tubulin polyglutamylase complex subunit 4 (PGs4): −3.47 fold
  Fold Change, MC1R, TUBB3 Tubulin beta-3-chain (Tubulin beta-III): +3.23 fold
  Fold Change, MMP9 Matrix metalloprotease-9-precursor: +12.61 fold
  Fold Change, MMP15 Matrix metalloprotease-15 precursor: +4.19 fold
  Fold Change, MMP21 Matrix metalloprotease-21 precursor: −7.89 fold
  Fold Change, MMP23A, MMP23B Matrix metalloprotease-23: −8.83 fold
  Fold Change, MMP26 Matrix metalloprotease-26-precursor (MMP-26): +2.91 fold
  Fold Change, MMP28 Matrix metalloprotease-28-precursor: +15.91 fold
  Fold Change, MYH14 Myosin-14: +5.72 fold
  Fold Change, MYL2 Myosin regulatory light chain 2: −2.50 fold
  Fold Change, MYO1F Myosin-lf (Myosin-le): +3.44 fold
  Fold Change, MYO6 Myosin-VI: +2.38 fold
  Fold Change, Mast/stem cell growth factor receptor precursor (SCFR) (Proto-oncogene tyrosine-protein kinase kit (c-kit)): −2.31 fold
  Fold Change, NDST4 N-heparan sulfate sulfotransferase 4: +4.43 fold
  Fold Change, NEIL2 DNA glycosylase/AP lyase Neil2: +4.17 fold
  Fold Change, NF-kappa-B-activating protein: −2.32 fold
  Fold Change, NGRN, TTLL13 Tubulin tyrosine ligase-like family, member 13: +12.65 fold
  Fold Change, NT5C1B, RDH14 Retinol dehydrogenase 14 (Alcohol dehydrogenase PAN20): −3.57 fold
  Fold Change, Nuclear factor Kappa B p105 unit (NF-kappa-B) (DNA-binding factor KBF 1): −2.01 fold
  Fold Change, PARP2 Poly (ADP-ribose) polymerase 2: +1.46 fold
  Fold Change, PARP9 Poly (ADP-ribose) polymerase 9: +7.74 fold
  Fold Change, PARP12 Poly (ADP-ribose) polymerase 12: +6.05 fold
  Fold Change, PARP15 Poly (ADP-ribose) polymerase 15: No effect
  Fold Change, PCDH11X Procadherin-11: +10.15 fold
  Fold Change, PCDH18 Procadherin-18-precursor: No effect
  Fold Change, PCDH19 Procadherin-19-precursor: No effect
  Fold Change, PCDHB1 Procadherin-beta-1-precursor: +2.00 fold
  Fold Change, PCDHB2 Procadherin-beta-2-precursor: +18.74 fold
  Fold Change, PCDHB3 Procadherin-beta-3-precursor: No effect
  Fold Change, PCDHB4 Procadherin-beta-4-precursor: −7.81 fold
  Fold Change, PFN4 Profilin-4 (Profilin IV): No effect
  Fold Change, PI3 Elastase-specific inhibitor: +2.72 fold
  Fold Change, Protein Kinase B (RAC-alpha serine/threonine-protein kinase) (RAC-PK-alpha): −3.47 fold
  Fold Change, RARRES1 Retinoic acid receptor responder protein 1: +12.87 fold
  Fold Change, RBP1 Cellular Retinol-binding protein-I: +4.17 fold
  Fold Change, RBP2 Cellular Retinol-binding protein-II: +4.12 fold
  Fold Change, RBP7 Cellular retinoic acid-binding protein 4: +3.09 fold
  Fold Change, RETSAT All-trans-retinol 13,14-reductase precursor: −2.84 fold
  Fold Change, SELE E-selection precursor (Endothelial leukocyte adhesion molecule 1) (ELAM-1): No effect
  Fold Change, SERPINB1 Leukocyte elastase inhibitor: +6.09 fold
  Fold Change, SIR2-like protein1/NAD-dependent deacetylase sirtuin-1 (hSIRT1): −1.54 fold
  Fold Change, SIR2-like protein2/NAD-dependent deacetylase sirtuin-2: +1.52 fold
  Fold Change, SIR2-like protein7/NAD-dependent deacetylase sirtuin-7: +2.47 fold
  Fold Change, SRRM1 Serine/arginine repetitive matrix protein 1 (SR-related nuclear matrix protein 160 kDa) (SRm160): +3.13 fold
  Fold Change, TBCEL Tubulin-specific chaperone cofactor E-like protein (EL): No effect
  Fold Change, TTBK1 Tau-tubulin kinase 1: No effect
  Fold Change, TTLL1 Tubulin polyglutamylase complex subunit 3 (PGs3): +2.07 fold
  Fold Change, TUBB2B Tubulin beta-2B chain: −3.31 fold
  Laminins gene regulation (in words): up-regulate
skin
  Primary skin irritation (edema or erythema): NON-PRIMARY IRRITANT
